Molecular target: T1, recombinant human PSMA (rhPSMA) (Homo sapiens, UniProt Q04609)
T1 construct: purchased Sino Biological
Assay: Naaladase assay (fluorescence-based Naaladase activity inhibition)
Assay type: biochemical
Conditions: rhPSMA 0.4 μg/mL, substrate N-Acetyl-Asp-Glu 40 μM, 37° C. one hour
Method: Naaladase activity inhibition was determined using a fluorescence-based assay. Briefly, the solution containing the substrate N-Acetyl-Asp-Glu (Sigma-Aldrich) at 40 μM and the compound at concentrations from 0.15 nM to 1000 nM was mixed at equal volume with recombinant human PSMA (rhPSMA, Sino Biological) at 0.4 μg/mL, in assay buffer (50 mM HEPES, 100 mM NaCl, pH 7.5). The enzymatic reaction was proceeded by incubation at 37° C. for one hour and then stopped by heating at 95° C. for 5 minutes. A solution of 15 mM ortho-phthaldialdehyde (Sigma-Aldrich) was added to all vials and incubated for 10 min at ambient temperature. The reaction solutions were loaded onto a 96-well flat clear bottom black microplates (Corning) and read at excitation and emission wavelengths of 330 and 450 nm, respectively, using a microplate reader (Tecan). The data were analyzed by a one-site total binding regression algorithm of GraphPad Prism (GraphPad Software).

T1 sequence (Q04609 whole entry): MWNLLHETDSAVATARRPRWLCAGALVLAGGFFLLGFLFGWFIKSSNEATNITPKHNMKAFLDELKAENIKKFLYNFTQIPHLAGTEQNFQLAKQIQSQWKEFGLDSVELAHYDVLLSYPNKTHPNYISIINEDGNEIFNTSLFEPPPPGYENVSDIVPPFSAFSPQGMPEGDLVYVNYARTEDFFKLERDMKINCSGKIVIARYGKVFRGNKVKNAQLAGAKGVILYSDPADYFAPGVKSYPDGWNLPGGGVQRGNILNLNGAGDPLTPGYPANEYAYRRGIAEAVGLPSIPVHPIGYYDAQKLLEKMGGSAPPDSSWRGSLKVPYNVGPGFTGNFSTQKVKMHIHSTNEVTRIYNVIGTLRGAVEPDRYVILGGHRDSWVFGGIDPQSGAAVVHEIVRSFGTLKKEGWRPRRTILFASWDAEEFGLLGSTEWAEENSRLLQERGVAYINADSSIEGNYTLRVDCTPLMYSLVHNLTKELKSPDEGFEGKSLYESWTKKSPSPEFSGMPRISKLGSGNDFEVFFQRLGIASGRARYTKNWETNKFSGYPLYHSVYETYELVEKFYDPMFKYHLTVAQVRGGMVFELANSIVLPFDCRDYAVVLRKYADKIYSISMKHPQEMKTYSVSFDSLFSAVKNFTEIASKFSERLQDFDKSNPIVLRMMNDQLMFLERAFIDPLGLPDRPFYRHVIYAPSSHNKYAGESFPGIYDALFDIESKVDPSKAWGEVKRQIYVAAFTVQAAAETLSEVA

O=C(O)CC[C@H](NC(=O)N[C@@H](CCCCNC(=O)C(Cc1ccc2ccccc2c1)Nc1nnc(C23CCC(CNC(=O)CN4CCN(CC(=O)O)CCN(CC(=O)O)CCN(CC(=O)O)CC4)(CC2)CC3)o1)C(=O)O)C(=O)O (single isomer, unassigned) [E17]
IC50: 3.5 nM

O=C(O)CC[C@H](NC(=O)N[C@@H](CCCCNC(=O)C(Cc1ccc2ccccc2c1)Nc1nnc(C23CCC(CNC(=O)CN4CCN(CC(=O)O)CCN(CC(=O)O)CCN(CC(=O)O)CC4)(CC2)CC3)o1)C(=O)O)C(=O)O (single isomer, unassigned) [E18]
IC50: 3.7 nM

O=C(O)CCC[C@H](NC(=O)N[C@@H](CCCCNC(=O)[C@H](Cc1c2ccccc2cc2ccccc12)Nc1c(NC23CCC(CNC(=O)CN4CCN(CC(=O)O)CCN(CC(=O)O)CCN(CC(=O)O)CC4)(CC2)CC3)c(=O)c1=O)C(=O)O)C(=O)O [E2, (S)-2-(3-((S)-5-((S)-3-(anthracen-9-yl)-2-((3,4-dioxo-2-((4-((2-(4,7,10-tris(carboxymethyl)-1,4,7,10-tetraazacyclododecan-1-yl)acetamido)methyl)bicyclo[2.2.2]octan-1-yl)amino)cyclobut-1-en-1-yl)amino)propanamido)-1-carboxypentyl)ureido)hexanedioic acid]
IC50: 4 nM

O=C(O)CC[C@H](NC(=O)N[C@@H](CCCCNC(=O)[C@H](Cc1ccc2ccccc2c1)Nc1c(Nc2ccc3c(c2)CCN(C(=O)CN2CCN(CC(=O)O)CCN(CC(=O)O)CCN(CC(=O)O)CC2)C3)c(=O)c1=O)C(=O)O)C(=O)O [E5]
IC50: 3 nM

O=C(O)CCC[C@H](NC(=O)N[C@@H](CCCCNC(=O)[C@H](Cc1c2ccccc2cc2ccccc12)Nc1c(N[C@H]2CC[C@H](c3nnc(CN4CCN(CC(=O)O)CCN(CC(=O)O)CCN(CC(=O)O)CC4)o3)CC2)c(=O)c1=O)C(=O)O)C(=O)O [E11]
IC50: 10 nM

NC(=O)CN1CCN(CC(=O)O)CCN(CC(=O)NC23CCC(Nc4c(N[C@@H](Cc5c6ccccc6cc6ccccc56)C(=O)NCCCC[C@H](NC(=O)N[C@@H](CNC(=O)C(=O)O)C(=O)O)C(=O)O)c(=O)c4=O)(CC2)CC3)CCN(CC(=O)O)CC1 [E16]
IC50: 3.5 nM

NC(=O)CN1CCN(CC(=O)O)CCN(Cc2nnc(C34CCC(Nc5c(N[C@@H](Cc6c7ccccc7cc7ccccc67)C(=O)NCCCC[C@H](NC(=O)N[C@@H](CCCC(=O)O)C(=O)O)C(=O)O)c(=O)c5=O)(CC3)CC4)o2)CCN(CC(=O)O)CC1 [E20]
IC50: 1.8 nM

From patent publication US20260176254A1, “INHIBITORS OF PROSTATE SPECIFIC MEMBRANE ANTIGEN AND USE THEREOF” (SHANGHAI SINOTAU BIOTECH. CO., LTD, priority 2023, published 2026)
